# Assay results from EP0651055A2 (priority 1993, dated 1995).
# How the values were obtained:
# [1] = target: T1, recombinant human acetylcholinesterase (HuAChE), wild type (Homo sapiens, UniProt P22303); conditions: read-out: Km (ATC); pH 8
# [2] = target: T1, recombinant human acetylcholinesterase (HuAChE), wild type; type: biochemical
# [3] = target: recombinant HuAChE mutant Glu202Gln (Homo sapiens, UniProt P22303, E233Q); type: biochemical
# [4] = target: recombinant HuAChE mutant Glu450Ala (Homo sapiens, UniProt P22303, E481A); type: biochemical
# [5] = target: recombinant HuAChE mutant Phe338Ala (Homo sapiens, UniProt P22303, F369A); type: biochemical
# [6] = target: recombinant HuAChE mutant Tyr337Ala (Homo sapiens, UniProt P22303, Y368A); type: biochemical
# CC(=O)SCC[N+](C)(C)C = assay: purified protein, by the assay type; conditions: other: Tyr133Ala, sodium-phosphate buffer pH 8, 27°C
# CC(=O)SCCC(C)(C)C = assay: purified protein, by the assay type; conditions: pH 8.0; 27.0 °C
# Chain of recombinant HuAChE mutant Tyr337Ala (P22303 32-614 Y368A limits assumed): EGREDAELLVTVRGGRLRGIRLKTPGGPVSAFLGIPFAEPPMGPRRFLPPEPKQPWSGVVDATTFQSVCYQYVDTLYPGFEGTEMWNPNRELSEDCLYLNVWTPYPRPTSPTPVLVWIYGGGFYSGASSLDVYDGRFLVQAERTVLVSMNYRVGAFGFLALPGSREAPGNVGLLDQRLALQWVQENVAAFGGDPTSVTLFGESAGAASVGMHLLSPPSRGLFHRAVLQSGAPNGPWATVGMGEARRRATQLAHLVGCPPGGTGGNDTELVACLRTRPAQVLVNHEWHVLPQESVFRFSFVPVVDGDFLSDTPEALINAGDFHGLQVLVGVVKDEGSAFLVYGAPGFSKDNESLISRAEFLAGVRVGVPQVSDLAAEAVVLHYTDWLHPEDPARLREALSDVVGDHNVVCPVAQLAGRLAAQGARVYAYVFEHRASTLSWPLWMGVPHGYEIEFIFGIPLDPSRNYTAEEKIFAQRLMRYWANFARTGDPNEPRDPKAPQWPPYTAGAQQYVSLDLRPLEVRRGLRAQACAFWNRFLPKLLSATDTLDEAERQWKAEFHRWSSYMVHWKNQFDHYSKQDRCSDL
# Chain of recombinant HuAChE mutant Phe338Ala (P22303 32-614 F369A limits assumed): as the sequence (P22303 32-614 Y368A limits assumed) above, with A337Y, F338A counted along it
# T1 sequence (P22303 32-614): as the sequence (P22303 32-614 Y368A limits assumed) above, with A337Y counted along it
# Chain of recombinant HuAChE mutant Glu202Gln (P22303 32-614 E233Q limits assumed): as the sequence (P22303 32-614 Y368A limits assumed) above, with E202Q, A337Y counted along it
# Chain of recombinant HuAChE mutant Glu450Ala (P22303 32-614 E481A limits assumed): as the sequence (P22303 32-614 Y368A limits assumed) above, with A337Y, E450A counted along it
molecule,measurement,setting,value
"CC(=O)SCC[N+](C)(C)C.[I-] [ATC, Acetylthiocholine iodide]",Km,[1],130 ± 15 µM
CCOP(=O)(OCC)Oc1ccc([N+](=O)[O-])cc1 [paraoxon],ki (paraoxon) relative to the wild type,[2],97 ±16 (1.00)
same,ki (paraoxon) relative to the wild type,[3],2.8±0.48(0.03)
same,"ki, rate constant of phosphylation (paraoxon)",[3]; acetylcholinesterase,2.8±0.48(0.03) x 10^-4.M^-1.min^-1
same,ki (paraoxon) relative to the wild type,[4],1.9±0.7 (0.02)
same,ki (paraoxon) relative to the wild type,[5],7.1±0.6 (0.07)
same,"ki, rate constant of phosphylation (paraoxon)",[5]; acetylcholinesterase,7.1±0.6 (0.07) x 10^-4.M^-1.min^-1
same,ki (paraoxon) relative to the wild type,[6],14.4±1.4 (0.15)
same,"ki, rate constant of phosphylation (paraoxon)",[6]; acetylcholinesterase,14.4±1.4 (0.15) x 10^-4.M^-1.min^-1
recombinant HuAChE mutant Tyr133Ala (Homo sapiens; Y164A),Km,CC(=O)SCC[N+](C)(C)C,5750 µM
"recombinant human acetylcholinesterase (HuAChE), wild type (Homo sapiens)",Km,CC(=O)SCCC(C)(C)C,280 ± 80 µM
